Results on 38 compounds are retold here after patent publication US20240246937A1 (MERCK SHARP & DOHME LLC, priority 2021, published 2024).

Structures are written as SMILES.

Sequence of recombinant IL4I1 (Q96RQ9 22-567): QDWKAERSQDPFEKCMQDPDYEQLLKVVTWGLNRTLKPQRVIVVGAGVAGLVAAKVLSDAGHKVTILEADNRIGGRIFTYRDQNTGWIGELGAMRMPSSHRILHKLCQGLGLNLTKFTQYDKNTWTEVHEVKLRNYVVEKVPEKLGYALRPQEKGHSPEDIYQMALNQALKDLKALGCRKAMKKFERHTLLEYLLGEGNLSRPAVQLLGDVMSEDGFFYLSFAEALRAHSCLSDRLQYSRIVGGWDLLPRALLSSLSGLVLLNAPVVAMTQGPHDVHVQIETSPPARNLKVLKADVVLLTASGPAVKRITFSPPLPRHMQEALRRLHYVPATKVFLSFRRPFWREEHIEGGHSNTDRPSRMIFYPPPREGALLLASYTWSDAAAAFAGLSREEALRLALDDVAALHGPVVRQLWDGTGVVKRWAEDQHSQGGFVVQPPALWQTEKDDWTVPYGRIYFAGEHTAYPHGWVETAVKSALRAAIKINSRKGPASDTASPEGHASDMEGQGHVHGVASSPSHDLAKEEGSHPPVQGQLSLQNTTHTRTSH

In this test the target is recombinant IL4I1 (Homo sapiens (Human), UniProt Q96RQ9). Kind of test: IL4I1 Enzymatic Assay (Amplex Red/HRP coupled fluorescence detection of H2O2). In kind it is biochemical. The following applies: 240 min; recombinant IL4I1, four-hour pre-incubation with compound. The procedure, abridged:
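Ten-point, 1:3 compound titrations were fitted by four-parameter sigmoidal regression to give EC50. Resorufin fluorescence (544/590 nm) from Amplex Red/HRP-coupled H2O2 detection was read 120 min after adding 1 mM each aromatic amino acid to 1 nM IL4I1, following a 4 h compound pre-incubation in pH 7.0 Hepes buffer.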
In the case of `CC(C)N1CCN(Cc2ncc(-c3ccccc3)cn2)C(=O)C1=O` [Example 286, 1-isopropyl-4-((5-phenylpyrimidin-2-yl)methyl)piperazine-2,3-dione], the EC50 came to 34 nM. For the compound `CC(C)(C)CN1CCN(Cc2ncc(-c3ccccc3)cn2)C(=O)C1=O` [Example 287, 1-neopentyl-4-((5-phenylpyrimidin-2-yl)methyl)piperazine-2,3-dione], the EC50 was found to be 34 nM. The figure for `CC(CF)N1CCN(Cc2ncc(-c3ccccc3)cn2)C(=O)C1=O` (centres unmarked) [Example 288, 1-(1-fluoropropan-2-yl)-4-((5-phenylpyrimidin-2-yl)methyl)piperazine-2,3-dione] is 37 nM; for `O=C1C(=O)N(C2CC(F)C2)CCN1Cc1nnc(-c2ccccc2)s1` (centres unmarked) [Example 290, 1-(3-fluorocyclobutyl)-4-((5-phenyl-1,3,4-thiadiazol-2-yl)methyl)piperazine-2,3-dione] it is 8 nM; for `O=C1C(=O)N(C2CC(C3CC3)C2)CCN1Cc1nnc(-c2ccccc2)s1` (centres unmarked) [Example 291, 1-(3-cyclopropylcyclobutyl)-4-((5-phenyl-1,3,4-thiadiazol-2-yl)methyl)piperazine-2,3-dione] it is 4 nM. On to `O=C1C(=O)N(c2ccccc2)CCN1Cc1ncc(-c2ccccc2)cn1` [Example 292, 1-phenyl-4-((5-phenylpyrimidin-2-yl)methyl)piperazine-2,3-dione], for which the EC50 was found to be 64 nM. For the compound `[2H]C1(n2ccn(Cc3nnc(-c4ccccc4)s3)c(=O)c2=O)CCCC1` [Example 293, 1-(cyclopentyl-1-d)-4-((5-phenyl-1,3,4-thiadiazol-2-yl)methyl)-1,4-dihydropyrazine-2,3-dione], the EC50 was 11 nM.

`O=C1C(=O)N(C23CC(F)(C2)C3)CCN1Cc1nnc(-c2ccccc2)s1` [Example 294, 1-(3-fluorobicyclo[1.1.1]pentan-1-yl)-4-((5-phenyl-1,3,4-thiadiazol-2-yl)methyl)piperazine-2,3-dione]: the EC50 was 16 nM. The figure for `N#CC12CC(N3CCN(Cc4nnc(-c5ccccc5)s4)C(=O)C3=O)(C1)C2` [Example 295, 3-(2,3-dioxo-4-((5-phenyl-1,3,4-thiadiazol-2-yl)methyl)piperazin-1-yl)bicyclo[1.1.1]pentane-1-carbonitrile] is 53 nM; for `CC12CC(N3CCN(Cc4nnc(-c5ccccc5)s4)C(=O)C3=O)(CO1)C2` [Example 296, 1-(1-methyl-2-oxabicyclo[2.1.1]hexan-4-yl)-4-((5-phenyl-1,3,4-thiadiazol-2-yl)methyl)piperazine-2,3-dione] it is 63 nM; for `COc1ccc(C2(N3CCN(Cc4nnc(-c5ccccc5)s4)C(=O)C3=O)CC2)nc1` [Example 297, 1-(1-(5-methoxypyridin-2-yl)cyclopropyl)-4-((5-phenyl-1,3,4-thiadiazol-2-yl)methyl)piperazine-2,3-dione] it is 83 nM.

`O=C1C(=O)N(C2(C(F)(F)F)CCC2)CCN1Cc1nnc(-c2ccccc2)s1` [Example 298, 1-((5-phenyl-1,3,4-thiadiazol-2-yl)methyl)-4-(1-(trifluoromethyl)cyclobutyl)piperazine-2,3-dione]: the EC50 worked out at 32 nM. On to `COCC(C)(C)N1CCN(Cc2nnc(-c3ccccc3)s2)C(=O)C1=O` [Example 299, 1-(1-methoxy-2-methylpropan-2-yl)-4-((5-phenyl-1,3,4-thiadiazol-2-yl)methyl)piperazine-2,3-dione], for which the EC50 is 56 nM. Consider `CC(C)(c1cccnc1)N1CCN(Cc2nnc(-c3ccccc3)s2)C(=O)C1=O` [Example 300, 1-((5-phenyl-1,3,4-thiadiazol-2-yl)methyl)-4-(2-(pyridin-3-yl)propan-2-yl)piperazine-2,3-dione], for which the EC50 is 86 nM. Consider `O=C1C(=O)N(C23CCC(CC2=O)C3)CCN1Cc1nnc(-c2ccccc2)s1` (centres unmarked) [Example 301, 1-(2-oxobicyclo[2.2.1]heptan-1-yl)-4-((5-phenyl-1,3,4-thiadiazol-2-yl)methyl)piperazine-2,3-dione], for which the EC50 worked out at 67 nM.

Consider `CC1(N2CCN(Cc3nnc(-c4ccccc4)s3)C(=O)C2=O)COC1` [Example 302, 1-(3-methyloxetan-3-yl)-4-((5-phenyl-1,3,4-thiadiazol-2-yl)methyl)piperazine-2,3-dione], for which the EC50 amounted to 69 nM. For the compound `CC1(N2CCN(Cc3nnc(-c4ccccc4)s3)C(=O)C2=O)CC1` [Example 303, 1-(1-methylcyclopropyl)-4-((5-phenyl-1,3,4-thiadiazol-2-yl)methyl)piperazine-2,3-dione], the EC50 was 28 nM. As to `O=C1C(=O)N(C2(c3ccncc3)CC2)CCN1Cc1nnc(-c2ccccc2)s1` [Example 304, 1-((5-phenyl-1,3,4-thiadiazol-2-yl)methyl)-4-(1-(pyridin-4-yl)cyclopropyl)piperazine-2,3-dione], the EC50 was found to be 98 nM. `O=C1C(=O)N(C2(CF)CC2)CCN1Cc1nnc(-c2ccccc2)s1` [Example 305, 1-(1-(fluoromethyl)cyclopropyl)-4-((5-phenyl-1,3,4-thiadiazol-2-yl)methyl)piperazine-2,3-dione]: the EC50 worked out at 32 nM. The same measure for `CC1(N2CCN(Cc3nnc(-c4ccccc4)s3)C(=O)C2=O)CCCCC1` [Example 306, 1-(1-methylcyclohexyl)-4-((5-phenyl-1,3,4-thiadiazol-2-yl)methyl)piperazine-2,3-dione]: 27 nM.

`CC(C)(C)N1CCN(Cc2nnc(-c3ccccc3)s2)C(=O)C1=O` [Example 307, 1-(tert-butyl)-4-((5-phenyl-1,3,4-thiadiazol-2-yl)methyl)piperazine-2,3-dione]: the EC50 is 20 nM.

For `N#CC1(N2CCN(Cc3nnc(-c4ccccc4)s3)C(=O)C2=O)CC1` [Example 308, 1-(2,3-dioxo-4-((5-phenyl-1,3,4-thiadiazol-2-yl)methyl)piperazin-1-yl)cyclopropane-1-carbonitrile], the EC50 stood at 35 nM. Consider `O=C1C(=O)N(C2CCCC2)CCN1Cc1nnc(N2CCCCC2)s1` [Example 309, 1-cyclopentyl-4-((5-(piperidin-1-yl)-1,3,4-thiadiazol-2-yl)methyl)piperazine-2,3-dione], for which the EC50 was 41 nM. In the case of `O=C1C(=O)N(C2CCCC2)CCN1Cc1nnc(N2CCCC2)s1` [Example 310, 1-cyclopentyl-4-((5-(pyrrolidin-1-yl)-1,3,4-thiadiazol-2-yl)methyl)piperazine-2,3-dione], the EC50 was determined as 41 nM. Take `O=C1C(=O)N(C2CCCC2)CCN1Cc1nnc(N2CC[C@H](F)C2)s1` [Example 311, (S)-1-cyclopentyl-4-((5-(3-fluoropyrrolidin-1-yl)-1,3,4-thiadiazol-2-yl)methyl)piperazine-2,3-dione]: the EC50 came to 60 nM. With `O=C1C(=O)N(C2CCCC2)CCN1Cc1nnc(N2CC[C@H](CF)C2)s1` [Example 312, (S)-1-cyclopentyl-4-((5-(3-(fluoromethyl)pyrrolidin-1-yl)-1,3,4-thiadiazol-2-yl)methyl)piperazine-2,3-dione], the EC50 turned out to be 69 nM. The figure for `O=C1C(=O)N(C2CCCC2)CCN1Cc1nnc(N2CC3CC3C2)s1` (centres unmarked) [Example 313, 1-((5-(3-azabicyclo[3.1.0]hexan-3-yl)-1,3,4-thiadiazol-2-yl)methyl)-4-cyclopentylpiperazine-2,3-dione] is 47 nM. As for `O=C1C(=O)N(C2CCCC2)CCN1Cc1ccc(N2CCCC2)nn1` [Example 314, 1-cyclopentyl-4-((6-(pyrrolidin-1-yl)pyridazin-3-yl)methyl)piperazine-2,3-dione], the EC50 is 43 nM.

`O=C1C(=O)N(C2CCCC2)CCN1Cc1ccc(N2CCCCC2)nn1` [Example 316, 1-cyclopentyl-4-((6-(piperidin-1-yl)pyridazin-3-yl)methyl)piperazine-2,3-dione]: the EC50 is 32 nM. For `O=C1C(=O)N(C2CCCC2)CCN1Cc1ccc(N2CCOCC2)nn1` [Example 317, 1-cyclopentyl-4-((6-morpholinopyridazin-3-yl)methyl)piperazine-2,3-dione], the EC50 stood at 45 nM. As for `O=C1C(=O)N(C2CCCC2)CCN1Cc1ccc(N2CCC2)nn1` [Example 318, 1-((6-(azetidin-1-yl)pyridazin-3-yl)methyl)-4-cyclopentylpiperazine-2,3-dione], the EC50 amounted to 36 nM. Regarding `O=C1C(=O)N(C2CCCC2)CCN1Cc1ccc(N2CCC(F)(F)C2)nn1` [Example 319, 1-cyclopentyl-4-((6-(3,3-difluoropyrrolidin-1-yl)pyridazin-3-yl)methyl)piperazine-2,3-dione], the EC50 amounted to 30 nM.

Consider `O=C1C(=O)N(C2CCCC2)CCN1Cc1ccc(N2CC3CC3C2)nn1` (centres unmarked) [Example 320, 1-((6-(3-azabicyclo[3.1.0]hexan-3-yl)pyridazin-3-yl)methyl)-4-cyclopentylpiperazine-2,3-dione], for which the EC50 was 20 nM. `O=C1C(=O)N(C2CCCC2)CCN1Cc1ccc(-n2ccnn2)nn1` [Example 321, 1-((6-(1H-1,2,3-triazol-1-yl)pyridazin-3-yl)methyl)-4-cyclopentylpiperazine-2,3-dione]: the EC50 came to 21 nM. Take `O=C1C(=O)N(C2CCCC2)CCN1Cc1ccc(-n2nccn2)nn1` [Example 322, 1-((6-(2H-1,2,3-triazol-2-yl)pyridazin-3-yl)methyl)-4-cyclopentylpiperazine-2,3-dione]: the EC50 is 28 nM.

Turning to `O=C1C(=O)N(C2CCCC2)CCN1Cc1nnc(-n2nccn2)s1` [Example 323, 1-((5-(2H-1,2,3-triazol-2-yl)-1,3,4-thiadiazol-2-yl)methyl)-4-cyclopentylpiperazine-2,3-dione], the EC50 was found to be 157 nM.

Consider `O=C1C(=O)N(C2CCC2)CCN1Cc1cnc(-n2nccn2)cn1` [Example 324, 1-((5-(2H-1,2,3-triazol-2-yl)pyrazin-2-yl)methyl)-4-cyclobutylpiperazine-2,3-dione], for which the EC50 came to 53 nM.

For the compound `O=C1C(=O)N(C23CC(C2)C3)CCN1Cc1cnc(-n2nccn2)cn1` [Example 325, 1-((5-(2H-1,2,3-triazol-2-yl)pyrazin-2-yl)methyl)-4-(bicyclo[1.1.1]pentan-1-yl)piperazine-2,3-dione], the EC50 came to 33 nM.

What is called EC50 is the concentration that produces a half-maximal response.
